Measurements from ChEMBL document CHEMBL5728313, “Methods for inhibiting fascin” (2021).
pIC50: −log10 of the molar value.

Test: High Throughput Inhibition Assay: A high throughput assay was developed to screen for fascin specific inhibitors. Purified polymerized F-actin with or without fascin were mixed and incubated to allow actin bundle formation. F-actin polymers were then bound to the poly-D-lysine coated plates. After extensive washes, F-actin polymers were visualized by labeling them with Alexa Fluor 488 phalloidin. Four images were taken from each well and the average fiber length was analyzed for each tested compound.

pIC50: 5.37
Compound: O=C(Cn1cnc2c(cnn2C2CCS(=O)(O)(O)C2)c1=O)Nc1ccc(Cl)cc1 (stereo unspecified)
